Measured values reported in PubChem BioAssay AID248 (DTP/NCI, 2004).
“And” between values parts separate entries of the source, which are not always exact repeats. Equal values may be shown once. Toxic doses and inconclusive results are not listed.

System: L1210 leukemia ip in BDF1 mice, survival T/C
Experiment: NCI In Vivo Anticancer Drug Screen. Data for tumor model L1210 Leukemia (intraperitoneal) in B6D2F1 (BDF1) mice
Conditions: endpoint: mean survival time, higher = longer survival
Procedure, shortened: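 Ratio derived from survival: compound-dosed mice over vehicle-dosed mice, all bearing a transplantable tumor.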

[1] = dose: 12.5 mg/kg/injection, schedule: Q01DX009 (ip), vehicle: Klucel (hydroxypropylcellulose) (HPC)
[2] = dose: 25.0 mg/kg/injection, schedule: Q01DX009 (ip), vehicle: Klucel (hydroxypropylcellulose) (HPC)
[3] = dose: 25.0 mg/kg/injection, schedule: Q04DX003 (ip), vehicle: Klucel (hydroxypropylcellulose) (HPC)
[4] = dose: 50.0 mg/kg/injection, schedule: Q01DX009 (ip), vehicle: Klucel (hydroxypropylcellulose) (HPC)
[5] = dose: 100.0 mg/kg/injection, schedule: Q01DX009 (ip), vehicle: Klucel (hydroxypropylcellulose) (HPC)
[6] = dose: 100.0 mg/kg/injection, schedule: Q04DX003 (ip), vehicle: Klucel (hydroxypropylcellulose) (HPC)
[7] = dose: 200.0 mg/kg/injection, schedule: Q01DX009 (ip), vehicle: Klucel (hydroxypropylcellulose) (HPC)
[8] = dose: 200.0 mg/kg/injection, schedule: Q04DX003 (ip), vehicle: Klucel (hydroxypropylcellulose) (HPC)
[9] = dose: 400.0 mg/kg/injection, schedule: Q01DX009 (ip), vehicle: Klucel (hydroxypropylcellulose) (HPC)
[10] = dose: 50.0 mg/kg/injection, schedule: Q04DX003 (ip), vehicle: saline
[11] = dose: 100.0 mg/kg/injection, schedule: Q04DX003 (ip), vehicle: saline
[12] = dose: 200.0 mg/kg/injection, schedule: Q04DX003 (ip), vehicle: saline
[13] = dose: 400.0 mg/kg/injection, schedule: Q04DX003 (ip), vehicle: saline
[14] = dose: 100.0 mg/kg/injection, schedule: Q01DX001 (ip), vehicle: carboxymethylcellulose (CMC)
[15] = dose: 200.0 mg/kg/injection, schedule: Q01DX001 (ip), vehicle: carboxymethylcellulose (CMC)
[16] = dose: 100.0 mg/kg/injection, schedule: Q01DX009 (ip), vehicle: saline
[17] = dose: 500.0 mg/kg/injection, schedule: Q01DX Z (ip), vehicle: saline
[18] = dose: 100.0 mg/kg/injection, schedule: Q04DX003 (ip), vehicle: saline with Tween-80
[19] = dose: 200.0 mg/kg/injection, schedule: Q04DX003 (ip), vehicle: saline with Tween-80
[20] = dose: 400.0 mg/kg/injection, schedule: Q04DX003 (ip), vehicle: saline with Tween-80
[21] = dose: 100.0 mg/kg/injection, schedule: Q01DX001 (ip), vehicle: saline

Q: `CC(=O)Nc1cccc2c(C)ccnc12` was tested. Which T/C [1] did it give?
A: 99 % of control

Q: And the T/C (dose: 12.5 mg/kg/injection, schedule: Q04DX003 (ip), vehicle: Klucel (hydroxypropylcellulose) (HPC))?
A: 94 % of control

Q: What about the T/C [2] of the same molecule?
A: 97 % of control

Q: And the T/C [3]?
A: 98 % of control

Q: What about the T/C [4] of the same molecule?
A: 87 % of control

Q: And the T/C (dose: 50.0 mg/kg/injection, schedule: Q04DX003 (ip), vehicle: Klucel (hydroxypropylcellulose) (HPC))?
A: 95 % of control

Q: `COc1ccc(C(=O)CC(=O)CC(=O)c2ccccc2)cc1` was tested. Which T/C [5] did it give?
A: 117 % of control

Q: What about the T/C [6] of the same molecule?
A: 107 % of control

Q: What about the T/C [7] of the same molecule?
A: 102 % of control

Q: And the T/C [8]?
A: 96 % of control

Q: And the T/C [9]?
A: 96 % of control

Q: What about the T/C (dose: 400.0 mg/kg/injection, schedule: Q04DX003 (ip), vehicle: Klucel (hydroxypropylcellulose) (HPC)) of the same molecule?
A: 105 % of control

Q: Which results are given for `CC1(C)OC2C(CO)OC(OCc3ccccc3)C2O1` (stereo not drawn)?
A: T/C [10]: 100 % of control; T/C [11]: 91 % of control; T/C [12]: 105 % of control; T/C [13]: 88 % of control

Q: Which T/C [14] does the source give for `Nc1cc2c(cc1I)-c1ccccc1C2=O` here?
A: 94 % of control

Q: And the T/C [15]?
A: 89 % of control

Q: And the T/C (dose: 400.0 mg/kg/injection, schedule: Q01DX001 (ip), vehicle: carboxymethylcellulose (CMC))?
A: 97 % of control

Q: What does the source list for `c1ccc(CCSc2ncnc3nc[nH]c23)cc1`?
A: T/C (dose: 31.3 mg/kg/injection, schedule: Q01DX Z (ip), vehicle: saline): 94 % of control; T/C (dose: 62.5 mg/kg/injection, schedule: Q01DX Z (ip), vehicle: saline): 94 % of control; T/C [16]: 122 % of control; T/C (dose: 125.0 mg/kg/injection, schedule: Q01DX Z (ip), vehicle: saline): 97 % of control; T/C (dose: 175.0 mg/kg/injection, schedule: Q01DX001 (ip), vehicle: saline): 100 % of control; T/C (dose: 250.0 mg/kg/injection, schedule: Q01DX Z (ip), vehicle: saline): 100 % of control and 101 % of control; T/C (dose: 265.0 mg/kg/injection, schedule: Q01DX001 (ip), vehicle: saline): 93 % of control; T/C (dose: 340.0 mg/kg/injection, schedule: Q01DX009 (ip), vehicle: saline): 159 % of control; T/C (dose: 400.0 mg/kg/injection, schedule: Q01DX001 (ip), vehicle: saline): 108 % of control; T/C [17]: 111 % of control; T/C (dose: 600.0 mg/kg/injection, schedule: Q01DX001 (ip), vehicle: saline): 101 % of control; T/C (dose: 1000.0 mg/kg/injection, schedule: Q01DX Z (ip), vehicle: saline): 117 % of control

Q: What does the source list for `C1CC2CCC[N+]3=C2C(C1)CCC3` (stereo not drawn)?
A: T/C (dose: 12.0 mg/kg/injection, schedule: Q04DX003 (ip), vehicle: saline): 93 % of control; T/C (dose: 12.5 mg/kg/injection, schedule: Q01DX009 (ip), vehicle: saline): 97 % of control; T/C (dose: 25.0 mg/kg/injection, schedule: Q01DX009 (ip), vehicle: saline): 101 % of control; T/C (dose: 25.0 mg/kg/injection, schedule: Q04DX003 (ip), vehicle: saline): 91 % of control; T/C (dose: 50.0 mg/kg/injection, schedule: Q01DX009 (ip), vehicle: saline): 101 % of control; T/C [10]: 101 % of control

Q: Which T/C [18] does the source give for `CCOC(=O)C(Nc1ccccc1)C(=O)OCC` here?
A: 92 % of control

Q: What about the T/C [19] of the same molecule?
A: 97 % of control

Q: And the T/C [20]?
A: 100 % of control

Q: For `CCO/C=N/c1onc(C)c1C#N`, which T/C (dose: 100.0 mg/kg/injection, schedule: Q04DX003 (ip), vehicle: carboxymethylcellulose (CMC)) is on record?
A: 102 % of control

Q: What about the T/C (dose: 200.0 mg/kg/injection, schedule: Q04DX003 (ip), vehicle: carboxymethylcellulose (CMC)) of the same molecule?
A: 100 % of control

Q: And the T/C (dose: 400.0 mg/kg/injection, schedule: Q04DX003 (ip), vehicle: carboxymethylcellulose (CMC))?
A: 90 % of control

Q: `CC(=O)OC1C=C2CCC3C(CCC4(C)C(OC(C)=O)CCC34)C2(C)CC1` (stereo not drawn) was tested. Which T/C [1] did it give?
A: 92 % of control

Q: What about the T/C [2] of the same molecule?
A: 92 % of control

Q: And the T/C [4]?
A: 90 % of control

Q: What about the T/C (dose: 75.0 mg/kg/injection, schedule: Q01DX009 (ip), vehicle: Klucel (hydroxypropylcellulose) (HPC)) of the same molecule?
A: 101 % of control

Q: And the T/C (dose: 115.0 mg/kg/injection, schedule: Q01DX009 (ip), vehicle: Klucel (hydroxypropylcellulose) (HPC))?
A: 98 % of control

Q: And the T/C (dose: 170.0 mg/kg/injection, schedule: Q01DX009 (ip), vehicle: Klucel (hydroxypropylcellulose) (HPC))?
A: 95 % of control

Q: Which results are given for `O=C1NCC2(CCCCCC2)O1`?
A: T/C [21]: 104 % of control; T/C (dose: 200.0 mg/kg/injection, schedule: Q01DX001 (ip), vehicle: saline): 108 % of control

Q: How did the T/C [21] turn out when `O=C1OCCC1[P+](c1ccccc1)(c1ccccc1)c1ccccc1` (stereo not drawn) was run?
A: 88 % of control

Q: Which results are given for `Clc1ccc2sc3c(c2c1)CCNC3`?
A: T/C [1]: 94 % of control; T/C [2]: 97 % of control; T/C [3]: 97 % of control; T/C [4]: 90 % of control; T/C [5]: 101 % of control; T/C [6]: 92 % of control; T/C [7]: 95 % of control; T/C [8]: 92 % of control

Q: How did the T/C (dose: 222.0 mg/kg/injection, schedule: Q01DX Z (ip), vehicle: saline) turn out when `CSc1ncc(C(N)=O)c(N)n1` was run?
A: 102 % of control

Q: What about the T/C (dose: 333.0 mg/kg/injection, schedule: Q01DX Z (ip), vehicle: saline) of the same molecule?
A: 89 % of control

Q: What about the T/C [17] of the same molecule?
A: 95 % of control

Q: With `COC(=O)C(Nc1ccc([N+](=O)[O-])cc1[N+](=O)[O-])C(C)O` (stereo not drawn) as the molecule, how does the T/C (dose: 100.0 mg/kg/injection, schedule: Q01DX001 (ip), vehicle: other) read?
A: 104 % of control

Q: And the T/C (dose: 200.0 mg/kg/injection, schedule: Q01DX001 (ip), vehicle: other)?
A: 101 % of control

Q: And the T/C (dose: 400.0 mg/kg/injection, schedule: Q01DX001 (ip), vehicle: other)?
A: 111 % of control

Q: `O=C(Nc1cccc(F)c1)Nc1cc([N+](=O)[O-])ccc1Cl` was tested. Which T/C [5] did it give?
A: 97 % of control

Q: What about the T/C [7] of the same molecule?
A: 94 % of control

Q: What about the T/C [9] of the same molecule?
A: 94 % of control and 97 % of control

Q: For `O=S(=O)(O)CNc1ccccc1`, which T/C [16] is on record?
A: 93 % of control

Q: And the T/C (dose: 200.0 mg/kg/injection, schedule: Q01DX009 (ip), vehicle: saline)?
A: 93 % of control

Q: What about the T/C (dose: 400.0 mg/kg/injection, schedule: Q01DX009 (ip), vehicle: saline) of the same molecule?
A: 95 % of control

Q: With `CC(=O)OC1CCC2(C)C(CCC3C4CC=C(C(C)=O)C4(C)OC(=O)CC32)C1` (stereo not drawn) as the molecule, how does the T/C [1] read?
A: 98 % of control

Q: And the T/C [2]?
A: 96 % of control

Q: What about the T/C [4] of the same molecule?
A: 98 % of control

Q: Which T/C [6] does the source give for `CCCCNC(c1ccccc1)C(Cl)c1ccccc1` (stereo not drawn) here?
A: 97 % of control

Q: And the T/C [8]?
A: 97 % of control

Q: What does the source list for `CCC(CO)NC(=O)C(O)C(O)C(O)C(O)CO` (stereo not drawn)?
A: T/C [11]: 94 % of control; T/C [12]: 97 % of control; T/C [13]: 94 % of control

Q: For `CC1CC[N-]CC1.CC1CC[N-]CC1.CC1CC[N-]CC1.CC1CC[N-]CC1.[Pt+4]`, which T/C (dose: 0.39 mg/kg/injection, schedule: Q01DX009 (ip), vehicle: saline) is on record?
A: 100 % of control

Q: And the T/C (dose: 0.39 mg/kg/injection, schedule: Q04DX003 (ip), vehicle: saline)?
A: 97 % of control

Q: What about the T/C (dose: 0.78 mg/kg/injection, schedule: Q01DX009 (ip), vehicle: saline) of the same molecule?
A: 92 % of control

Q: What about the T/C (dose: 0.78 mg/kg/injection, schedule: Q04DX003 (ip), vehicle: saline) of the same molecule?
A: 100 % of control

Q: What about the T/C (dose: 1.56 mg/kg/injection, schedule: Q01DX009 (ip), vehicle: saline) of the same molecule?
A: 94 % of control

Q: What about the T/C (dose: 1.56 mg/kg/injection, schedule: Q04DX003 (ip), vehicle: saline) of the same molecule?
A: 102 % of control

Q: And the T/C (dose: 3.12 mg/kg/injection, schedule: Q04DX003 (ip), vehicle: saline)?
A: 96 % of control

Q: With `Cc1ccc(S(=O)(=O)OCC(O)C(O)C(O)C(O)C=O)cc1` (stereo not drawn) (tested in a mixture with another compound) as the molecule, how does the T/C [18] read?
A: 102 % of control

Q: And the T/C [19]?
A: 94 % of control

Q: What about the T/C [20] of the same molecule?
A: 94 % of control

Q: With `CNC(=S)N/N=C/CCC/C=N/NC(=S)NC` as the molecule, how does the T/C (dose: 50.0 mg/kg/injection, schedule: Q01DX001 (ip), vehicle: carboxymethylcellulose (CMC)) read?
A: 96 % of control

Q: What about the T/C [14] of the same molecule?
A: 100 % of control

Q: What about the T/C [15] of the same molecule?
A: 98 % of control
